Measured values reported in publication PMC4022148 (Molecular and biochemical parasitology, 2014).

Target: T1, E. histolytica LMW-PTP (Entamoeba histolytica, UniProt C4LSE7)
T1 sequence (C4LSE7 1-157): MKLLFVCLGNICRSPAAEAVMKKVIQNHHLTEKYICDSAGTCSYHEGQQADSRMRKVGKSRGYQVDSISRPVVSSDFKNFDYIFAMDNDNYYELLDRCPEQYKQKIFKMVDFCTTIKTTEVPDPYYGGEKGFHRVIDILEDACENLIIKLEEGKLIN
Experiment: colorimetric phosphatase assay, A405
Type: biochemical
Settings: kit assay buffer, 10-200 ng enzyme, 100 ul

## O=[N+]([O-])c1ccc(OP(=O)(O)O)cc1 [pNPP]
  colorimetric phosphatase assay, A405 (SensoLyte pNPP kit): The wild-type recombinant LMW-PTP possessed phosphatase activity
